The record followed here is US9314464B2, “Compounds and compositions as protein kinase inhibitors” (Novartis AG, priority 2009, dated 2016).

The nature of data set [1]: In Vivo Pharmacokinetics Assay in mouse. The following applies: male, Balb/c, plasma; for clearance at 24 h: IV 2 mg/kg. As to the method: Full pharmacokinetics study: Male Balb/c mice (n=3, body weights 22-25 g) or male Wistar rats (n=3, body weights 250-300 g) were administered the test compound intravenously via the lateral tail vein or orally via gavage. The formulation was typically a 2.5 mg/mL solution of the compound in 75% PEG300 and 25% D5W. Six blood samples of 50 μL each were collected serially for 24 h after dosing. The blood samples were centrifuged to separate the plasma. Plasma samples were analyzed and quantified by LC-MS/MS.
Rapid pharmacokinetics study: Male Balb/c mice (n=3, body weights 22-25 g) or male Wistar rats (n=3, body weights 250-300 g) were administered the test compound intravenously (IV) via the lateral tail vein or orally (PO) via gavage. The formulation was typically a 2.5 mg/mL solution of the compound in 75% PEG300 and 25% D5W. Six blood samples of 50 μL each were collected serially for 24 h after dosing. Blood samples were centrifuged and plasma separated and pooled across the three animals at each time point per dose route. Plasma samples were analyzed and quantified by LC-MS/MS.
For both full and rapid pharmacokinetics studies, the following parameters were calculated by non-compartmental regression analysis using Winnonlin 5.0 software (Pharsight, Mountain View, Calif., USA): plasma clearance (Cl), plasma maximum concentration (Cmax), plasma area-under-the-concentration-time-curve (AUC0-inf), and percent oral bioavailability (F %).

A short description of data set [2]: Liver Microsomal Clearance Assay, mouse. In kind it is in vitro ADME. The following applies: extraction ratio, mouse liver microsomes. As to the method:
(§1) Liver Microsomal Clearance Assay
(§2) The in vitro microsomal clearance assay is designed to assess potential risks associated with hepatic metabolic stability of compounds. The test compound (1 μM) was incubated with liver microsomes (0.5 mg/mL) from different species (mouse, rat, monkey, dog and human) and NADPH (1 mM) in 100 mM potassium phosphate buffer at 37° C. At specific reaction time points (0, 5, 10 and 30 minutes), reaction aliquots were removed and reactions were terminated by addition of ice cold acetonitrile containing mass spectrometry internal standard. The samples were centrifuged and the supernatants were analyzed by LC-MS/MS. In vitro metabolic half-life (t1/2, min) and intrinsic clearance (CLint, μL/min/mg) are based on the rate and extent of metabolism of the test compound as determined by the disappearance of the parent compound from the reaction mixture. These values may be scaled to predict hepatic metabolic clearance rate (CLh, mL/min/kg) and extraction ratio (ER, expressed as a ratio of the predicted hepatic metabolic clearance to hepatic blood flow in that species). In general, compounds with high predicted CLint or ER in vitro are considered to be at high risk for exposure-limiting metabolism in vivo.

Data set [3] is described as follows: Liver Microsomal Clearance Assay, human. In kind it is in vitro ADME. The conditions noted are these: extraction ratio, human liver microsomes. The protocol:
as §1, §2
Background: Microsomes from liver hold many membrane-bound enzymes, among them those of drug oxidation.

The target of another data set is B-Raf V600E (Homo sapiens (Human), UniProt P15056, V600E). The data set can be described thus: B-Raf V600E/Mek Amplified Luminescence Proximity Homogeneous Assay (B-Raf V600E biochemical). The following applies: read-out: BRAF V600E biochemical IC50. As to the method: The plate was incubated for 60 minutes at room temperature.
The B-Raf kinase activity reaction was started by the addition of 10 μl per well of 2×ATP (10 μM) diluted in assay buffer. After 3 hours, the reactions were stopped with the addition of 10 μl of stop reagent (60 mM EDTA, 0.01% Tween20). Phosphorylated product was measured using a rabbit anti-p-MEK (Cell Signaling, #9121) antibody and the Alpha Screen IgG (ProteinA) detection Kit (PerkinElmer #6760617R), by the addition of 30 μl to the well of a mixture of the antibody (1:2000 dilution) and detection beads (1:1000 dilution of both beads) in bead buffer (50 mM Tris, pH 7.5, 0.01% Tween20). The additions were carried out under dark conditions to protect the detection beads from light. A lid was placed on top of the plate and the plate was incubated for 1 hour at room temperature. The luminescence was read on a PerkinElmer Envision instrument. The concentration of each compound for 50% inhibition (IC50) was calculated by non-linear regression using XL Fit data analysis software.

The mark [4] stands for this setting: 5 mg/kg, PO/IV 5/2 mg/kg, n = 1.

The bioavailability is dose-corrected exposure relative to a reference, in per cent. Read a low bioavailability as poor availability. For orientation: clearance means the rate of elimination divided by the concentration. The low end stands for inefficient removal, the high end for efficient removal. As a reminder, the AUC is concentration integrated over time. A higher AUC goes with more exposure. The term Cmax denotes the peak of the concentration-time curve. What is called IC50 is the point on the concentration scale where inhibition reaches its midpoint.

B-Raf V600E, sequence (P15056 whole entry V600E): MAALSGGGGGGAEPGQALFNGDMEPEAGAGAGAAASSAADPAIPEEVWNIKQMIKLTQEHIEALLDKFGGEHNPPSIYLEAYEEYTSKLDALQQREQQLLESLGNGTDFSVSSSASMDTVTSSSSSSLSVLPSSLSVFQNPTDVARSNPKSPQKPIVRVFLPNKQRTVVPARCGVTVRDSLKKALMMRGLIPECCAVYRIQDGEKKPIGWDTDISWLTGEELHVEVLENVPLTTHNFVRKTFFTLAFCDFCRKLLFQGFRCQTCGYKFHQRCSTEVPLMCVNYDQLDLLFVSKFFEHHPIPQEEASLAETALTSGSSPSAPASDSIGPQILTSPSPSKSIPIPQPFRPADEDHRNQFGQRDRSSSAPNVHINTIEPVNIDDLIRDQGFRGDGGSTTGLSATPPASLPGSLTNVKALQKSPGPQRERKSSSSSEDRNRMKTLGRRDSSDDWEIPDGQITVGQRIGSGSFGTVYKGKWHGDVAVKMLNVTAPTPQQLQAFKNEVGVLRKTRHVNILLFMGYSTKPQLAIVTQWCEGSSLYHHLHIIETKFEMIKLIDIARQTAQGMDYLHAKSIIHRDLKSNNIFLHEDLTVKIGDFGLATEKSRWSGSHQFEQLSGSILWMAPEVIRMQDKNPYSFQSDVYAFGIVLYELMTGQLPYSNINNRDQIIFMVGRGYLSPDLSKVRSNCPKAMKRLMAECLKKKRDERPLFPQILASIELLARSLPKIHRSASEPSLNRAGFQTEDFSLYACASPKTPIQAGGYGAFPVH

`CCCS(=O)(=O)Nc1cc(Cl)cc(-c2nn(C(C)C)cc2-c2ccnc(NC[C@H](C)NC(=O)OC)n2)c1F` [Compound 1, Methyl N-[(2S)-1-[(4-{3-[5-chloro-2-fluoro-3-(propane-1-sulfonamido)phenyl]-1-(propan-2-yl)-1H-pyrazol-4-yl}pyrimidin-2-yl)amino]propan-2-yl]carbamate] registered a bioavailability at 24 h in data set [1] (setting [4]) of 46%. The compound also registered a clearance at 24 h in data set [1] of 7 mL/min/kg. In data set [1] (PO 5 mg/kg, n = 1), this compound had an AUC at 24 h of 9.7 µM·h and a Cmax at 24 h of 7400 nM. Also, the “ER Mouse” value in data set [2] is listed as 0.79. In data set [3], the “ER Human” value was found to be 0.66.

As to `COC(=O)N[C@@H](C)CNc1nccc(-c2cn(C(C)C)nc2-c2cc(Cl)cc(NS(C)(=O)=O)c2)n1` [Compound 2, methyl N-[(2S)-1-({4-[3-(3-chloro-5-methanesulfonamidophenyl)-1-(propan-2-yl)-1H-pyrazol-4-yl]pyrimidin-2-yl}amino)propan-2-yl]carbamate], the IC50 at B-Raf V600E worked out at 0.8 nM.

On to `CCCS(=O)(=O)Nc1cccc(-c2nn(C(C)C)cc2-c2ccnc(NC[C@H](C)NC(=O)OC)n2)c1F` [Compound 3, methyl N-[(2S)-1-[(4-{3-[2-fluoro-3-(propane-1-sulfonamido)phenyl]-1-(propan-2-yl)-1H-pyrazol-4-yl}pyrimidin-2-yl)amino]propan-2-yl]carbamate], for which the bioavailability at 24 h in data set [1] (setting [4]) stood at 6%. The compound further yielded a clearance at 24 h in data set [1] of 51 mL/min/kg. Also, in data set [1] (PO 5 mg/kg, n = 1), the AUC at 24 h was found to be 0.2 µM·h and the maximum concentration (Cmax) at 24 h was found to be 70 nM. Besides, in data set [2], the “ER Mouse” value was determined as 0.85. Moreover, the “ER Human” value in data set [3] worked out at 0.69.

As for `CCCS(=O)(=O)Nc1cc(Cl)cc(-c2nn(C(C)C)cc2-c2ccnc(NC[C@H](C)NC(=O)OC)n2)c1` [Compound 5, methyl N-[(2S)-1-[(4-{3-[3-chloro-5-(propane-1-sulfonamido)phenyl]-1-(propan-2-yl)-1H-pyrazol-4-yl}pyrimidin-2-yl)amino]propan-2-yl]carbamate], the IC50 at B-Raf V600E stood at 0.2 nM.

As to `COC(=O)N[C@@H](C)CNc1nccc(-c2cn(C(C)C)nc2-c2c(F)ccc(NS(C)(=O)=O)c2F)n1` [Compound 6, methyl N-[(2S)-1-({4-[3-(2,6-difluoro-3-methanesulfonamidophenyl)-1-(propan-2-yl)-1H-pyrazol-4-yl]pyrimidin-2-yl}amino)propan-2-yl]carbamate], the bioavailability at 24 h in data set [1] (10 mg/kg, PO/IV 10/2 mg/kg) came out at 15 ± 3%. Besides, the clearance at 24 h in data set [1] came out at 61 ± 6 mL/min/kg. In data set [1] (PO 10 mg/kg), the AUC at 24 h amounted to 1.1 ± 0.2 µM·h and the Cmax at 24 h was found to be 600 ± 20 nM. In addition, the IC50 on B-Raf V600E amounted to 3.9 nM. In addition, the “ER Human” value in data set [3] was found to be 0.69.

On to `COC(=O)N[C@@H](C)CNc1nccc(-c2cn(C(C)C)nc2-c2cc(F)cc(NS(C)(=O)=O)c2F)n1` [Compound 10, methyl N-[(2S)-1-({4-[3-(2,5-difluoro-3-methanesulfonamidophenyl)-1-(propan-2-yl)-1H-pyrazol-4-yl]pyrimidin-2-yl}amino)propan-2-yl]carbamate], for which, on B-Raf V600E, the IC50 worked out at 0.6 nM.

Turning to `CCn1cc(-c2ccnc(NC[C@H](C)NC(=O)OC)n2)c(-c2cc(Cl)cc(NS(C)(=O)=O)c2F)n1` [Compound 11, methyl N-[(2S)-1-({4-[3-(5-chloro-2-fluoro-3-methanesulfonamidophenyl)-1-ethyl-1H-pyrazol-4-yl]pyrimidin-2-yl}amino)propan-2-yl]carbamate], on B-Raf V600E, the IC50 worked out at 0.5 nM.

For `COC(=O)N[C@@H](C)CNc1nccc(-c2cn(C(C)C)nc2-c2cc(F)cc(NS(C)(=O)=O)c2Cl)n1` [Compound 15, Methyl N-[(2S)-1-({4-[3-(2-chloro-5-fluoro-3-methanesulfonamidophenyl)-1-(propan-2-yl)-1H-pyrazol-4-yl]pyrimidin-2-yl}amino)propan-2-yl]carbamate], at B-Raf V600E, the IC50 worked out at 1.1 nM.

As to `COC(=O)N[C@@H](C)CNc1nccc(-c2cn(C(C)C)nc2-c2ccnc(NS(C)(=O)=O)c2F)n1` [Compound 16, methyl N-[(2S)-1-({4-[3-(3-fluoro-2-methanesulfonamidopyridin-4-yl)-1-(propan-2-yl)-1H-pyrazol-4-yl]pyrimidin-2-yl}amino)propan-2-yl]carbamate], at B-Raf V600E, the IC50 turned out to be 24 nM.

With `COC(=O)N[C@@H](C)CNc1nccc(-c2cn(C(C)C)nc2-c2ccc(F)c(NS(C)(=O)=O)c2F)n1` [Compound 19, methyl N-[(2S)-1-({4-[3-(2,4-difluoro-3-methanesulfonamidophenyl)-1-(propan-2-yl)-1H-pyrazol-4-yl]pyrimidin-2-yl}amino)propan-2-yl]carbamate], the 50% inhibitory concentration (IC50) at B-Raf V600E turned out to be 6.1 nM.

As to `CCS(=O)(=O)Nc1c(F)ccc(-c2nn(C(C)C)cc2-c2ccnc(NC[C@H](C)NC(=O)OC)n2)c1F` [Compound 26, methyl N-[(2S)-1-({4-[3-(3-ethanesulfonamido-2,4-difluorophenyl)-1-(propan-2-yl)-1H-pyrazol-4-yl]pyrimidin-2-yl}amino)propan-2-yl]carbamate], on B-Raf V600E, the IC50 worked out at 1.7 nM.

Regarding `COC(=O)N[C@@H](C)CNc1nccc(-c2cn(C(C)C)nc2-c2cc(NS(C)(=O)=O)c(C)c(OC)c2)n1` [Compound 27], on B-Raf V600E, the concentration for half-maximal inhibition (IC50) is 390 nM.

Consider `CC(C)n1cc(-c2ccnc(NCCN(C)C)n2)c(-c2cc(Cl)cc(NS(C)(=O)=O)c2F)n1` [Compound 28, N-{5-chloro-3-[4-(2-{[2-(dimethylamino)ethyl]amino}pyrimidin-4-yl)-1-(propan-2-yl)-1H-pyrazol-3-yl]-2-fluorophenyl}methanesulfonamide], for which the IC50 at B-Raf V600E was found to be 90 nM.

As to `CNc1nccc(-c2cn(C(C)C)nc2-c2cc(Cl)cc(NS(C)(=O)=O)c2F)n1` [Compound 29, N-(5-chloro-2-fluoro-3-{4-[2-(methylamino)pyrimidin-4-yl]-1-(propan-2-yl)-1H-pyrazol-3-yl}phenyl)methanesulfonamide], the IC50 at B-Raf V600E was 8 nM.

`CC(C)n1cc(-c2ccnc(N)n2)c(-c2cc(Cl)cc(NS(C)(=O)=O)c2F)n1` [Compound 30, N-{3-[4-(2-aminopyrimidin-4-yl)-1-(propan-2-yl)-1H-pyrazol-3-yl]-5-chloro-2-fluorophenyl}methanesulfonamide]: on B-Raf V600E, the concentration for half-maximal inhibition (IC50) came to 4.3 nM.

`COC(=O)N[C@@H](C)CNc1nccc(-c2c[nH]nc2-c2cc(Cl)cc(NS(C)(=O)=O)c2F)n1` [Compound 31, Methyl N-[(2S)-1-({4-[3-(5-chloro-2-fluoro-3-methanesulfonamidophenyl)-1H-pyrazol-4-yl]pyrimidin-2-yl}amino)propan-2-yl]carbamate]: the half-maximal inhibitory concentration (IC50) at B-Raf V600E worked out at 0.8 nM.

As to `COC(=O)NC[C@H](C)Nc1nccc(-c2cn(C(C)C)nc2-c2cc(Cl)cc(NS(C)(=O)=O)c2F)n1` [Compound 32, Methyl N-[(2S)-2-({4-[3-(5-chloro-2-fluoro-3-methanesulfonamidophenyl)-1-(propan-2-yl)-1H-pyrazol-4-yl]pyrimidin-2-yl}amino)propyl]carbamate], the half-inhibitory concentration (IC50) on B-Raf V600E was found to be 2.9 nM.

Take `CCCS(=O)(=O)Nc1c(F)ccc(-c2nn(C(C)C)cc2-c2ccnc(NC[C@H](C)NC(=O)OC)n2)c1F` [Compound 34, methyl N-[(2S)-1-[(4-{3-[2,4-difluoro-3-(propane-1-sulfonamido)phenyl]-1-(propan-2-yl)-1H-pyrazol-4-yl}pyrimidin-2-yl)amino]propan-2-yl]carbamate]: the half-inhibitory concentration (IC50) at B-Raf V600E amounted to 2.7 nM.
